Test results: ChEMBL document CHEMBL1145007 (J Med Chem, 2003)

Key:
[1] = target: Butyrylcholinesterase (Equus caballus, UniProt Q9N1N9)
Description: Inhibition of Equine Butyrylcholinesterase

[2] = target: T1, Acetylcholinesterase (Bos taurus, UniProt P23795)
T1 sequence (P23795 whole entry): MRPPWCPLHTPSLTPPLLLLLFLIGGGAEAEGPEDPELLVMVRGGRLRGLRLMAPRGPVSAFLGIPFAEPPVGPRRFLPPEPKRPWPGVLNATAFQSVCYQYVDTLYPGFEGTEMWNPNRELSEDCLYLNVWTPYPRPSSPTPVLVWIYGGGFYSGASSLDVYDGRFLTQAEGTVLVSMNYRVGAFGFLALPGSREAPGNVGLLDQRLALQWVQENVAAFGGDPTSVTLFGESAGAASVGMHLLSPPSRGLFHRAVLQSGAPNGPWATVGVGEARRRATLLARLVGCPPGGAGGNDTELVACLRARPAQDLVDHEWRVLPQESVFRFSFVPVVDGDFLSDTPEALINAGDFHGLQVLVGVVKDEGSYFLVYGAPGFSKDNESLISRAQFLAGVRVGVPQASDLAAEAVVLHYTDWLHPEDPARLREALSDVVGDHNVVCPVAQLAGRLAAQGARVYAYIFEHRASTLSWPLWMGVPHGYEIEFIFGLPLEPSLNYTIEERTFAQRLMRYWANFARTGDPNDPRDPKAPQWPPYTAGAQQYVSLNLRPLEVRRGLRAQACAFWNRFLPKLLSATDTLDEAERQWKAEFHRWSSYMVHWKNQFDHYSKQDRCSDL
Description: Inhibition of fetal Bovine serum AChE

[3] = target: Acetylcholinesterase (Homo sapiens, UniProt P22303); assay: Inhibitory activity against human AChE
Sequence of Acetylcholinesterase (Homo sapiens, UniProt P22303) (P22303 whole entry): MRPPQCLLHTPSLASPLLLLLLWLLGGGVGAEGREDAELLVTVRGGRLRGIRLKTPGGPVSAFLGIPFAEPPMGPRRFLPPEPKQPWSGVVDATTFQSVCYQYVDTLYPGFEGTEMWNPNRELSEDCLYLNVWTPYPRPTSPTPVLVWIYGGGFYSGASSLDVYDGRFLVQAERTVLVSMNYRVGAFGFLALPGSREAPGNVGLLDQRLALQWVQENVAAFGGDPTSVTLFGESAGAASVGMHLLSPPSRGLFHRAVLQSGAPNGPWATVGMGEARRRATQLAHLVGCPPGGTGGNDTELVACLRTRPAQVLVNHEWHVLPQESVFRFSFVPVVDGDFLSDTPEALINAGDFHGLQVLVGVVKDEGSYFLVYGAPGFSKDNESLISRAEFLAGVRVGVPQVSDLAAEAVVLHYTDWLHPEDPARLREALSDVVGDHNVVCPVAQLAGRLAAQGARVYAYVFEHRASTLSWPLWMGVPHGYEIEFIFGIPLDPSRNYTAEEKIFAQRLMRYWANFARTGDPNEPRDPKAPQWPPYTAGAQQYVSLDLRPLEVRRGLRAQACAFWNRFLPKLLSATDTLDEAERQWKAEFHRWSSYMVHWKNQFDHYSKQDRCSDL

Sequence of Butyrylcholinesterase (Q9N1N9 whole entry): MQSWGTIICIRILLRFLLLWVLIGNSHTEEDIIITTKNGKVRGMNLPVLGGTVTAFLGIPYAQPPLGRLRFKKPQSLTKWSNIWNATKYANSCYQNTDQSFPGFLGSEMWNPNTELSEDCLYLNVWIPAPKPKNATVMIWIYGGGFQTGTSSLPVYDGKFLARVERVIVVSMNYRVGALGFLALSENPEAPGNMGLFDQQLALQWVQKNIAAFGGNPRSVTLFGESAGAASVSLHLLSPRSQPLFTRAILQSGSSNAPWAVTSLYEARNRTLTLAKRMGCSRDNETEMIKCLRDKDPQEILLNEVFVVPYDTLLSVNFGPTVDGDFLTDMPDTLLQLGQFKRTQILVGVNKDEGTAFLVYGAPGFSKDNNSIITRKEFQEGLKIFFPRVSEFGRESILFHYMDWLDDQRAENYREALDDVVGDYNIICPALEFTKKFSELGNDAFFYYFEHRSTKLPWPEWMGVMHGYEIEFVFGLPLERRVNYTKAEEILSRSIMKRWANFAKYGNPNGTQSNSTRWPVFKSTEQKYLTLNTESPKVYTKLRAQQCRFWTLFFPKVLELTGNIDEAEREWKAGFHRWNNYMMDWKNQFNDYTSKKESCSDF

SMILES	Ki [1]	Ki [2]	Ki [3]
c1ccc2c(NCCCCCSc3c4c(nc5ccccc35)CCCC4)c3c(nc2c1)CCCC3	10 nM	210 nM	–
CCC1=CC2Cc3nc4cc(Cl)ccc4c(N)c3[C@@H](C1)C2 [HUPRINE X]	–	–	0.026 nM
CN(CCCNc1c2c(nc3ccccc13)CCCC2)CCCNc1c2c(nc3ccccc13)CCCC2	6 nM	0.06 nM	–
CN(CCCNc1c2c(nc3ccccc13)CCCC2)CCCNc1c2c(nc3cc(Cl)cc(Cl)c13)CCCC2	11 nM	3.7 nM	–
c1ccc2c(NCCCCCCCCSc3c4c(nc5ccccc35)CCCC4)c3c(nc2c1)CCCC3	0.4 nM	250 nM	–
CC(=O)N(CCCNc1c2c(nc3ccccc13)CCCC2)CCCNc1c2c(nc3ccccc13)CCCC2	2 nM	1500 nM	–
